{"source": "patent US7312237B2", "about": "“Combination of epothilone analogs and chemotherapeutic agents for the treatment of prolilferative diseases” (Bristol-Myers Squibb Co., priority 2001, dated 2007)", "key": {"HCT-116": {"test_system": "HCT-116", "assay": "In vitro cytotoxicity (MTS assay), HCT-116", "assay_type": "cell-based", "settings": "Homo sapiens; HCT-116, 72 hour incubation", "description": "HCT116 human carcinoma cell lines and HCT116/VM46 cells, a MDR variant, were maintained in McCoy's 5A medium (GIBCO) and 10% heat inactivated fetal bovine serum (GIBCO). A2780 human ovarian carcinoma cells and A2780Tax cells obtained from Dr. Antonio Fojo (NCI, Bethesda, Md.) were maintained in IMEM (GIBCO) and 10% fetal bovine serum (GIBCO).\n(§1) The in vitro cytotoxicity was assessed in tumor cells by a tetrazolium-based colorimetric assay which takes advantage of the metabolic conversion of MTS (3-(4,5-dimethylthiazol-2-yl)-5-(3-carboxymethoxyphenyl)-2-(4-sulphenyl)-2H-tetrazolium, inner salt) to a reduced form that absorbs light at 492 nm. Cells were seeded 24 hr prior to drug addition. Following a 72 hour incubation at 37° C. with serially diluted compound, MTS, in combination with the electron coupling agent phenazine methosulfate, was added to the cells. The incubation was continued for 3 hours, then the absorbancy of the medium at 492 nm was measured with a spectrophotometer to obtain the number of surviving cells relative to control populations. The results are expressed as median cytotoxic concentrations (IC50 values)."}, "[1]": {"test_system": "normal mouse lung fibroblast cell line MLF", "assay": "In vitro cytotoxicity (MTS assay), MLF", "assay_type": "cell-based", "description": "as §1"}, "[2]": {"test_system": "tubulin isolated from calf brain", "assay": "Tubulin polymerization assay", "assay_type": "biochemical"}, "in vivo": {"assay": "in vivo", "settings": "nude, mouse, in vivo, iv, Compound 1 IV", "text": "(§2) The following human tumors were used: A2780 ovarian, A2780Tax ovarian (established from cells obtained from Dr. Antonio Fojo, Medicine Branch, NCI, Bethesda, Md.), HCT116/VM46 colon, Pat-7 ovarian (established from a tumor biopsy provided by Dr. Thomas Hamilton, Fox Chase Cancer Center, Philadelphia, Pa.) from a patient who had developed resistance to TAXOL®). The murine fibrosarcoma M5076 was also employed.\n(§3) The following tumors were passaged in the indicated host strain of mouse: murine M5076 fibrosarcoma (M5076) in C57Bl/6 mice; human A2780 and Pat-7 ovarian carcinomas, HCT116, HCT116/VM46 and LS174T colon carcinoma, Pat-21 breast carcinoma in nude mice. Tumor passage occurred biweekly for murine tumors and approximately every two to eight weeks for the various human tumor lines. With regard to efficacy testing, M5076 tumors were implanted in (C57Bl/6×DBA/2)F1 hybrid mice, and human tumors were implanted in nude mice. All tumor implants for efficacy testing were subcutaneous (sc).\n(§4) The required number of animals needed to detect a meaningful response were pooled at the start of the experiment and each was given a subcutaneous implant of a tumor fragment (·50 mg) with a 13-gauge trocar. For treatment of early-stage tumors, the animals were again pooled before distribution to the various treatment and control groups. For treatment of animals with advanced-stage disease, tumors were allowed to grow to the predetermined size window (tumors outside the range were excluded) and animals were evenly distributed to various treatment and control groups. Treatment of each animal was based on individual body weight. Treated animals were checked daily for treatment related toxicity/mortality. Each group of animals was weighed before the initiation of treatment (Wt1) and then again following the last treatment dose (Wt2). The difference in body weight (Wt2−Wt1) provides a measure of treatment-related toxicity.\n(§5) Tumor weights (mg) were estimated from the formula: Tumor weight=(length×width^2)÷2\n(§6) Antitumor activity was evaluated at the maximum tolerated dose (MTD) which is defined as the dose level immediately […] which excessive toxicity (i.e. more than one death) occurred. […] When death occurs, the day of death was recorded.\n(§7) Tumor response end-point was expressed in terms of tumor growth delay (T-C value), defined as the difference in time (days) required for the treated tumors (T) to reach a predetermined target size compared to those of the control group (C).\n(§8) To estimate tumor cell kill, the tumor volume doubling time was first calculated with the formula:\n(§9) TVDT=Median time (days) for control tumors to reach target size−Median time (days) for control tumors to reach half the target size\n(§10) HCT116/VM46 is an MDR-resistant colon carcinoma developed from the sensitive HCT116 parent line."}, "[3]": {"test_system": "HCT116/VM46 human colon carcinoma", "assay": "in vivo", "text": "as §2, §3, §4, §5, §6, §7, §8, §9, §10"}, "Pat-21 breast carcinoma": {"test_system": "Pat-21 breast carcinoma", "settings": "Expt. R667, IV q4dx3; 41, 68, OD 10 mg/kg; interim analysis, study in progress", "text": "as §3, §4, §5\nAntitumor activity was evaluated at the maximum tolerated dose (MTD) which is defined as the dose level immediately […] which excessive toxicity (i.e. more than one death) occurred. […] When death occurs, the day of death was recorded. […]\nTo estimate tumor cell kill, the tumor volume doubling time was first calculated with the formula: […]"}, "[4]": {"assay": "In vivo antitumor testing, M5076 murine sarcoma", "set-up": "species or system mice", "settings": "(C57Bl/6×DBA/2)F1 hybrid, mouse, in vivo, iv, Compound 1 IV, read-out: OD (optimal dose or MTD)", "description": "(§11) The murine fibrosarcoma M5076 was also employed.\n(§12) The human tumors were maintained in Balb/c nu/nu nude mice. M5076 was maintained in C57BL/6 mice. Tumors were propagated as subcutaneous transplants in the appropriate mouse strain using tumor fragments obtained from donor mice.\n(§13) All tumor implants for efficacy testing were subcutaneous (sc).\n(§14) The MTD was frequently equivalent to OD. When death occurs, the day of death was recorded.\n(§15) And, Log cell kill=T−C÷(3.32×TVDT)"}, "[5]": {"test_system": "M5076 murine fibrosarcoma", "assay": "In vivo antitumor testing, M5076 murine sarcoma", "set-up": "species or system mice", "description": "as §11, §12, §13, §14, §15"}, "[6]": {"test_system": "A2780 human ovarian carcinoma", "assay": "In vivo antitumor testing, A2780 in nude rats", "description": "as §14, §15\nA2780 grown in nude rats was also utilized."}, "[7]": {"assay": "In vivo antitumor testing, HCT116 xenograft", "set-up": "species or system nude mice", "settings": "nude, mouse, in vivo, read-out: OD (optimal dose or MTD)", "description": "as §13, §14, §15"}, "[8]": {"test_system": "HCT116 human colon carcinoma", "assay": "In vivo antitumor testing, HCT116 xenograft", "set-up": "species or system nude mice", "description": "as §13, §14, §15"}, "[9]": {"settings": "human, in vivo"}, "[10]": {"settings": "Expt. 52, IV q2dx5, OD 6.3 mg/kg"}, "[11]": {"settings": "Expt. 52, IV q4dx3, OD 10 mg/kg"}, "[12]": {"settings": "Expt. 52, IV q8dx2, OD 24 mg/kg"}, "[13]": {"settings": "Expt. 52, PO q2dx5, OD 90 mg/kg"}}, "note": "Values joined by “and” are separate entries in the source; they are usually repeats but may differ in a detail not shown here. Equal values may be shown once. “Also recorded” adds a separate entry of the source.", "data": [{"smiles": "C/C(=C\\c1csc(C)n1)[C@@H]1C[C@@H]2O[C@]2(C)CCC[C@H](C)[C@H](O)[C@@H](C)C(=O)C(C)(C)[C@@H](O)CC(=O)N1", "note": "(relative stereo) [Compound 1, [1S-[1R*,3R*(E),7R*,10S*,11R*,12R*,16S*]]-7,11-dihydroxy-8,8,10,12,16-pentamethyl-3-[1-methyl-2-(2-methyl-4-thiazolyl)ethenyl]-4-aza-17-oxabicyclo[14.1.0] heptadecane-5,9-dione]", "values": [{"measurement": "IC50", "setting": "HCT-116", "value": 0.0026, "unit": "µM"}, {"measurement": "IC50", "setting": "[1]", "value": 0.0345, "unit": "µM"}, {"measurement": "Ratio of Polymerization Potency of Analog/Paclitaxel", "setting": "[2]", "value": 0.4}, {"measurement": "MTD", "setting": "in vivo; OD (optimal dose or MTD), q2dx5", "value": 4.8, "unit": "mg/kg"}, {"measurement": "MTD", "setting": "in vivo; OD (optimal dose or MTD; maximum tolerated regimen), q4dx3", "value": 15, "unit": "mg/kg"}, {"measurement": "OD (optimal dose or MTD)", "setting": "[3]; Compound 1 IV, q2dx5", "value": 6.3, "unit": "mg/kg"}, {"measurement": "OD (optimal dose or MTD; maximum tolerated regimen)", "setting": "[3]; Compound 1 IV, q4dx3", "value": 16, "unit": "mg/kg"}, {"measurement": "LCK (gross log cell kill)", "setting": "[3]; Expt. 32, IV q2dx5, OD 4.8 mg/kg", "value": 3.1}, {"measurement": "LCK (gross log cell kill)", "setting": "[3]; Expt. 33, IV q2dx5, OD 4.8 mg/kg", "value": 1.3}, {"measurement": "LCK (gross log cell kill)", "setting": "[3]; Expt. 35, IV q2dx5, OD 6.3 mg/kg", "value": 1.8}, {"measurement": "LCK (gross log cell kill)", "setting": "[3]; Expt. 35, IV q4dx3, OD 16 mg/kg", "value": 2.0}, {"measurement": "LCK of tumor response", "setting": "[3]; FIG. 7, Compound 1 alone, 15 mg/kg iv, q4dx3", "value": 1.6, "unit": "LCK"}, {"measurement": "tumor cure", "setting": "[3]; FIG. 7, single agent treatment at maximum tolerated regimen", "value": "did not induce tumor cure"}, {"measurement": "LCK (gross log cell kill)", "setting": "Pat-21 breast carcinoma", "value": ">1.5^5"}, {"measurement": "MTD", "setting": "[4]; q2dx5", "value": 8.4, "unit": "mg/kg"}, {"measurement": "MTD", "setting": "[4]; q4dx3", "value": 24, "unit": "mg/kg"}, {"measurement": "LCK (gross log cell kill)", "setting": "[5]; Expt. 159, IV q2dx5, OD 8.4 mg/kg", "value": 0.5}, {"measurement": "LCK (gross log cell kill)", "setting": "[5]; Expt. 162, IV q2dx5, OD 8.4 mg/kg", "value": 0.7}, {"measurement": "LCK (gross log cell kill)", "setting": "[5]; Expt. 172, IV q4dx3, OD 24 mg/kg", "value": 1.0}, {"measurement": "MTD", "setting": "[6]; Compound 1, every 2 days x5, nude rats", "value": 1.2, "unit": "mg/kg/inj"}, {"measurement": "LCK", "setting": "[6]; nude rats, every 2 days x5, MTD 1.2 mg/kg/inj", "value": 0.3}, {"measurement": "MTD", "setting": "[7]; iv, Compound 1 IV, q2dx5", "value": 6.3, "unit": "mg/kg"}, {"measurement": "MTD", "setting": "[7]; iv, Compound 1 IV, q4dx3", "value": 10, "unit": "mg/kg"}, {"measurement": "MTD", "setting": "[7]; iv, Compound 1 IV, q8dx2", "value": 24, "unit": "mg/kg"}, {"measurement": "MTD", "setting": "[7]; po, Compound 1 PO, q2dx5", "value": 90, "unit": "mg/kg"}, {"measurement": "LCK (gross log cell kill)", "setting": "[8]; [10]", "value": "> 6.3"}, {"measurement": "cures/total", "setting": "[8]; [10]", "value": "4 of 8 and 4/8"}, {"measurement": "LCK (gross log cell kill)", "setting": "[8]; [11]", "value": "> 6.3"}, {"measurement": "cures/total", "setting": "[8]; [11]", "value": "5 of 8 and 5/8"}, {"measurement": "LCK (gross log cell kill)", "setting": "[8]; [12]", "value": "> 6.3"}, {"measurement": "cures/total", "setting": "[8]; [12]", "value": "8 of 8 and 8/8"}, {"measurement": "LCK (gross log cell kill)", "setting": "[8]; [13]", "value": ">6.3"}, {"measurement": "cures/total", "setting": "[8]; [13]", "value": "seven of eight; also recorded: (7/8)"}, {"measurement": "dose recommended for Phase II clinical trials", "setting": "[9]", "value": 50, "unit": "mg/m2"}]}]}
